Assay results published in article PMC4311625, “Structural determinants for binding to angiotensin converting enzyme 2 (ACE2) and angiotensin receptors 1 and 2” (Frontiers in Pharmacology, 2015).
Read-outs that look alike come from different tables or passages of the source. Peptide text beside a SMILES is read from it.

Target: ACE2 (Homo sapiens, UniProt Q9BYF1)
Assay: ACE2 quenched fluorescence substrate (QFS) inhibition assay
Type: biochemical
Details: for inhibition at 10 µM: read-out: ACE2 inhibition of terminally modified IHPF analogs, 10 μM (Table 3, in brackets), peptide 10 μM
Procedure: Angiotensin converting enzyme 2 QFS assays were performed for 1 h in 50 uM QFS, 1 M NaCl, 100 mM Tris-Cl, pH 6.5 at 37∘C on a BMG LabTechnologies (Offenburg, Germany), FLUOStar Optima in a 96 well-plate. Subsequent data analysis determined the inhibition of native AngII, its analogs and C-terminal peptides compared to the ACE2 QFS substrate [MCA-APK(DNP)-OH, [Vickers et al., 2002]]. […] Three controls were included in each ACE2 QFS assay; AngII (100 and 10 μM), IHPF (100 μM) and a known ACE2 inhibitor (1 nM; Millennium Pharmaceuticals, Cambridge, MA, USA). QFS assay results were accepted when ACE2 inhibition by AngII (10 μM) was 80 ± 5%, IHPF was 65 ± –5% and the ([Qian et al., 1999]) ‘Millennium Inhibitor’ was 70 ± –5%. Acceptable coefficients of variation (CV; standard deviation/mean × 100) for sample triplicates were <7%.
A library of 40 tetrapeptides based on the four C-terminal residues of Ang II (Ile-His-Pro-Phe/IHPF) was generated and screened for ACE2 binding at 100 μM in order to identify key residues of the C-terminus of Ang II involved in binding to the ACE2 active site. […] Several substitutions (Val, Tyr, Ala, Gly, Phe, Trp, Pro, His, Ile, and Leu) were made in order to further probe the highly hydrophobic and cyclic specificity of the C-terminus of Ang II. A β-napthalene amino acid (Nth) derivative was used as a highly hydrophobic non-natural cyclic residue substitute, and Arg and Lys were substituted for histidine at the second position from the N-terminus of the tetrapeptide to determine if positive charge or other structural or positional requirements were important.

[1] = 50 uM QFS, 1 M NaCl, 100 mM Tris-Cl pH 6.5, 37 °C, 1 h
[2] = read-out: ACE2 inhibition of terminally modified IHPF analogs, 100 μM (Table 3), peptide 100 μM, 50 uM QFS, 1 M NaCl, 100 mM Tris-Cl pH 6.5, 37 °C, 1 h
[3] = peptide 100 μM, 50 uM QFS MCA-APK(DNP)-OH, 1 M NaCl, 100 mM Tris-Cl pH 6.5, 37 °C, 1 h, fluorescence, triplicate, read-out: ACE2 inhibition of single substitution analogs of the C-terminal of AngII (Table 1)
[4] = peptide 100 μM, 50 uM QFS, 1 M NaCl, 100 mM Tris-Cl pH 6.5, 37 °C, 1 h, triplicate, read-out: Inhibition (%) of ACE2, single and multiple residue substitution analogs (Table 2)
[5] = pH 6.5, read-out: ACE2 inhibition of terminally modified IHPF analogs, 100 μM (Table 3)

Chain of ACE2 (Q9BYF1 18-805, species assumed): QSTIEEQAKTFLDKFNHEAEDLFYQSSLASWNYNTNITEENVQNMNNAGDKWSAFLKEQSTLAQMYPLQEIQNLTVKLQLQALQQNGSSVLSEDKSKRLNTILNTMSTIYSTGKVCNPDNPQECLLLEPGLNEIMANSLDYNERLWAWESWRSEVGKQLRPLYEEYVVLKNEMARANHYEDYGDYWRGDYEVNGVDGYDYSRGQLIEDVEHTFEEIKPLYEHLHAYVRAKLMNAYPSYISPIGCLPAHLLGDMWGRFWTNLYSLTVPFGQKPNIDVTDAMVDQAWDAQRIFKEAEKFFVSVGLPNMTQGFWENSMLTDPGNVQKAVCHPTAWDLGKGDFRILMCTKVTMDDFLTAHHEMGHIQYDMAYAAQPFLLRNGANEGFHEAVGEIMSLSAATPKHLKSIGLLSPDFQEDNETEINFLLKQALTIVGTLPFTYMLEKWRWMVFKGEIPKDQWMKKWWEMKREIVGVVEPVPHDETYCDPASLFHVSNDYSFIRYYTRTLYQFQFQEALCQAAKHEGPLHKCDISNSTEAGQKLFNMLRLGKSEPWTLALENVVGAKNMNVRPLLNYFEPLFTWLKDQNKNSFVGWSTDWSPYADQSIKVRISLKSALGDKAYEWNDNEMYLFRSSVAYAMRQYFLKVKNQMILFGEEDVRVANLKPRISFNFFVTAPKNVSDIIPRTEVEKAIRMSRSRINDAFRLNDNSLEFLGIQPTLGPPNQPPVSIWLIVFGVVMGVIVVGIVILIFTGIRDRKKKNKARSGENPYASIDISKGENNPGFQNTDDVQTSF

| SMILES | inhibition at 100 µM [2] [%] | inhibition at 100 µM [3] [%] | further results |
| --- | --- | --- | --- |
| CC[C@H](C)[C@H](N)C(=O)N[C@@H](Cc1c[nH]cn1)C(=O)N1CCC[C@H]1C(=O)NCC(=O)O [IHPG] (H-IHPG-OH) |  | 41 |  |
| N[C@@H](Cc1ccc(O)cc1)C(=O)N[C@@H](Cc1c[nH]cn1)C(=O)N1CCC[C@H]1C(=O)N[C@@H](Cc1ccccc1)C(=O)O [YHPF] (H-YHPF-OH) |  | 34 |  |
| CC(C)[C@H](NC(=O)[C@H](Cc1c[nH]cn1)NC(=O)[C@@H]1CCCN1)C(=O)N[C@@H](Cc1ccccc1)C(N)=O [C-amidated PHVF] (H-PHVF-NH2) | 12 |  |  |
| CC[C@H](C)[C@H](N)C(=O)N[C@@H](Cc1ccc(O)cc1)C(=O)N[C@H](C(=O)N[C@@H](Cc1ccccc1)C(=O)O)C(C)C [IYVF] (H-IYVF-OH) |  |  | inhibition at 100 µM [4]: 77% |
| CC[C@H](C)[C@H](N)C(=O)N[C@@H](Cc1c[nH]c2ccccc12)C(=O)N1CCC[C@H]1C(=O)N[C@@H](Cc1ccccc1)C(=O)O [IWPF] (H-IWPF-OH) |  | 40 |  |
| CC[C@H](C)[C@H](N)C(=O)N[C@@H](CCCCN)C(=O)N1CCC[C@H]1C(=O)N[C@@H](Cc1ccccc1)C(=O)O [IKPF] (H-IKPF-OH) |  | 28 |  |
| CC(=O)N[C@H](C(=O)N[C@@H](Cc1ccc(O)cc1)C(=O)N1CCC[C@H]1C(=O)N[C@@H](Cc1ccccc1)C(N)=O)C(C)C [N-acetylated/C-amidated VYPF] (Ac-VYPF-NH2) |  |  | inhibition at 100 µM [5]: 30% |
| NCC(=O)N[C@@H](Cc1c[nH]cn1)C(=O)N1CCC[C@H]1C(=O)N[C@@H](Cc1ccccc1)C(=O)O [GHPF] (H-GHPF-OH) |  | 0 |  |
| N[C@@H](Cc1ccccc1)C(=O)N[C@@H](Cc1c[nH]cn1)C(=O)N1CCC[C@H]1C(=O)N[C@@H](Cc1ccccc1)C(=O)O [FHPF] (H-FHPF-OH) |  | 48 |  |
| NC(=O)[C@H](Cc1ccccc1)NC(=O)[C@@H]1CCCN1C(=O)[C@H](Cc1ccc(O)cc1)NC(=O)[C@@H]1CCCN1 [C-amidated PYPF] (H-PYPF-NH2) |  |  | inhibition at 100 µM [5]: 33% |
| CC(=O)N1CCC[C@H]1C(=O)N[C@@H](Cc1ccc(O)cc1)C(=O)N1CCC[C@H]1C(=O)N[C@@H](Cc1ccccc1)C(=O)O [N-acetylated PYPF] (Ac-PYPF-OH) | 87 |  | inhibition at 10 µM [1]: 44% |
| CC(C)[C@H](NC(=O)[C@H](Cc1c[nH]cn1)NC(=O)[C@@H]1CCCN1)C(=O)N[C@@H](Cc1ccccc1)C(=O)O [PHVF] (H-PHVF-OH) | 93 |  | inhibition at 100 µM [4]: 93%; inhibition at 10 µM [1]: 49% |
| CC(=O)N[C@H](C(=O)N[C@@H](Cc1c[nH]cn1)C(=O)N[C@H](C(=O)N[C@@H](Cc1ccccc1)C(N)=O)C(C)C)C(C)C [N-acetylated/C-amidated VHVF] (Ac-VHVF-NH2) | 21 |  | inhibition at 10 µM [1]: 4% |
| CC[C@H](C)[C@H](N)C(=O)N[C@@H](Cc1c[nH]cn1)C(=O)N1CCC[C@H]1C(=O)N[C@@H](Cc1ccc(O)cc1)C(=O)O [IHPY] (H-IHPY-OH) |  | 50 |  |
| CC(C)[C@H](N)C(=O)N[C@@H](Cc1ccc(O)cc1)C(=O)N[C@H](C(=O)N[C@@H](Cc1ccccc1)C(=O)O)C(C)C [VYVF] (H-VYVF-OH) |  |  | inhibition at 100 µM [4]: 78% |
| CC[C@H](C)[C@H](N)C(=O)N[C@@H](Cc1c[nH]cn1)C(=O)N1CCC[C@H]1C(=O)N[C@@H](C)C(=O)O [IHPA] (H-IHPA-OH) |  | 44 |  |
| CC(=O)N1CCC[C@H]1C(=O)N[C@@H](Cc1ccc(O)cc1)C(=O)N1CCC[C@H]1C(=O)N[C@@H](Cc1ccccc1)C(N)=O [N-acetylated/C-amidated PYPF] (Ac-PYPF-NH2) |  |  | inhibition at 100 µM [5]: 28% |
| CC[C@H](C)[C@H](N)C(=O)N[C@H](C(=O)N1CCC[C@H]1C(=O)N[C@@H](Cc1ccccc1)C(=O)O)[C@@H](C)CC [IIPF] (H-IIPF-OH) |  | 32 |  |

The next lines start with results.

| inhibition at 100 µM [2] [%] | inhibition at 100 µM [3] [%] | SMILES | further results |
| --- | --- | --- | --- |
| 93 |  | CC[C@H](C)[C@H](NC(C)=O)C(=O)N[C@@H](Cc1ccc(O)cc1)C(=O)N1CCC[C@H]1C(=O)N[C@@H](Cc1ccccc1)C(=O)O [N-acetylated IYPF] (Ac-IYPF-OH) | inhibition at 10 µM [1]: 62% |
|  | 0 | CC[C@H](C)[C@H](N)C(=O)N[C@@H](Cc1c[nH]cn1)C(=O)N[C@@H](CC(C)C)C(=O)N[C@@H](Cc1ccccc1)C(=O)O [IHLF] (H-IHLF-OH) |  |
|  | 0 | CC[C@H](C)[C@H](N)C(=O)N[C@@H](Cc1c[nH]cn1)C(=O)N[C@@H](Cc1ccccc1)C(=O)N[C@@H](Cc1ccccc1)C(=O)O [IHFF] (H-IHFF-OH) |  |
| 18 |  | CC[C@H](C)[C@H](NC(C)=O)C(=O)N[C@@H](Cc1ccc(O)cc1)C(=O)N1CCC[C@H]1C(=O)N[C@@H](Cc1ccccc1)C(N)=O [N-acetylated/C-amidated IYPF] (Ac-IYPF-NH2) |  |
| 25 |  | CC(=O)N1CCC[C@H]1C(=O)N[C@@H](Cc1ccc(O)cc1)C(=O)N[C@H](C(=O)N[C@@H](Cc1ccccc1)C(N)=O)C(C)C [N-acetylated/C-amidated PYVF] (Ac-PYVF-NH2) |  |
|  | 0 | CC[C@H](C)[C@H](N)C(=O)N[C@@H](Cc1c[nH]cn1)C(=O)N[C@@H](Cc1c[nH]c2ccccc12)C(=O)N[C@@H](Cc1ccccc1)C(=O)O [IHWF] (H-IHWF-OH) |  |
| 94 |  | CC(C)[C@H](NC(=O)[C@H](Cc1ccc(O)cc1)NC(=O)[C@@H]1CCCN1)C(=O)N[C@@H](Cc1ccccc1)C(=O)O [PYVF] (H-PYVF-OH) | inhibition at 100 µM [4]: 94%; inhibition at 10 µM [1]: 51% |
|  | 77 | CC[C@H](C)[C@H](N)C(=O)N[C@@H](Cc1c[nH]cn1)C(=O)N[C@H](C(=O)N[C@@H](Cc1ccccc1)C(=O)O)C(C)C [IHVF] (H-IHVF-OH) | inhibition at 100 µM [4]: 77% |
|  | 14 | CC[C@H](C)[C@H](N)C(=O)N[C@@H](Cc1c[nH]cn1)C(=O)N[C@@H](Cc1c[nH]cn1)C(=O)N[C@@H](Cc1ccccc1)C(=O)O [IHHF] (H-IHHF-OH) |  |
|  | 28 | CC[C@H](C)[C@H](N)C(=O)N[C@H](C(=O)N1CCC[C@H]1C(=O)N[C@@H](Cc1ccccc1)C(=O)O)C(C)C [IVPF] (H-IVPF-OH) |  |
|  | 19 | CC[C@H](C)[C@H](N)C(=O)N[C@@H](Cc1c[nH]cn1)C(=O)N[C@@H](C)C(=O)N[C@@H](Cc1ccccc1)C(=O)O [IHAF] (H-IHAF-OH) |  |
|  | 0 | CC[C@H](C)[C@H](N)C(=O)N[C@@H](Cc1c[nH]cn1)C(=O)NCC(=O)N[C@@H](Cc1ccccc1)C(=O)O [IHGF] (H-IHGF-OH) |  |
|  | 0 | CC[C@H](C)[C@H](N)C(=O)N[C@@H](Cc1ccccc1)C(=O)N1CCC[C@H]1C(=O)N[C@@H](Cc1ccccc1)C(=O)O [IFPF] (H-IFPF-OH) |  |
| 76 |  | CC(=O)N[C@H](C(=O)N[C@@H](Cc1c[nH]cn1)C(=O)N[C@H](C(=O)N[C@@H](Cc1ccccc1)C(=O)O)C(C)C)C(C)C [N-acetylated VHVF] (Ac-VHVF-OH) | inhibition at 10 µM [1]: 31% |
| 84 | 87 | CC[C@H](C)[C@H](N)C(=O)N[C@@H](Cc1ccc(O)cc1)C(=O)N1CCC[C@H]1C(=O)N[C@@H](Cc1ccccc1)C(=O)O [IYPF] (H-IYPF-OH) | inhibition at 10 µM [1]: 35% |
| 98 |  | CC(=O)N[C@H](C(=O)N[C@@H](Cc1ccc(O)cc1)C(=O)N1CCC[C@H]1C(=O)N[C@@H](Cc1ccccc1)C(=O)O)C(C)C [N-acetylated VYPF] (Ac-VYPF-OH) | inhibition at 10 µM [1]: 79% |
